{"source": "patent US6395762B1", "about": "“Phenyl amino squarate and thiadiazole dioxide beta-3 adrenergic receptor agonists” (American Home Products Corporation, priority 2000, dated 2002)", "key": {"[1]": {"target": "T1, human β3-AR (Homo sapiens, UniProt P13945)", "T1 construct": "Full-length β3-AR clones (402 amino acids) containing the last 6 amino acids of hβ3-AR; expressed in transfected cells; host or cells: CHO (Chinese hamster ovary) cells", "T1 sequence (P13945 whole entry)": "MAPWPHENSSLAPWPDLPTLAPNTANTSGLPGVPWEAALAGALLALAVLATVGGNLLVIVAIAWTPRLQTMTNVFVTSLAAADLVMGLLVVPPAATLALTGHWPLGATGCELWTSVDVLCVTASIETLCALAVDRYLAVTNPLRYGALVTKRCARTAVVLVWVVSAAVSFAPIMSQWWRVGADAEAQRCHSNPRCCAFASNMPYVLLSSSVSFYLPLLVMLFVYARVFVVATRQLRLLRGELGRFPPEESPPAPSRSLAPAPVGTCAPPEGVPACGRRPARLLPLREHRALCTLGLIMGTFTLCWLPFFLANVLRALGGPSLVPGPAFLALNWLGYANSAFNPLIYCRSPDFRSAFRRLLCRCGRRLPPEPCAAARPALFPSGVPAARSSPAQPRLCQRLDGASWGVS", "assay": "cAMP accumulation (SPA) in CHO cells transfected with human β3-AR", "type": "cell-based", "details": "CHO cells transfected with human β3-AR; for IA(β3): maximal response of compound relative to maximal response of isoproterenol at 10^−5 M; for EC50: cAMP by SPA, 30 min at 37° C., 10^−9 M to 10^−5 M, read-out: EC50(β3)", "protocol": "The ability of the compounds of this invention to treat or inhibit disorders related to insulin resistance or hyperglycemia was confirmed with representative compounds of this invention in the following standard pharmacological test procedures, which measured the binding selectivity of the β1-, β2-, and β3-AR. Binding to the receptors was measured in Chinese Hamster ovary (CHO) cells that were transfected with β1-, β2-, and β3-AR's. The following briefly summarizes the procedures used and results obtained.\nCloning of Human β3-AR Genomic DNA: cDNA was constructed by ligating four polymerase chain reaction (PCR) products using the following primers: an ATG-Narl fragment, sense primer 5′-[…]3′ and anti-sense primer 5′[…]3′; a Narl-Accl fragment, 5′[…]3′ as sense and 5′[…]3′ as anti-sense primer; an Accli—Styl fragment, sense primer 5′[…]3′ and anti-sense primer 5′[…]3′ and a Styl-TAG fragment, with sense primer 5′ […]3′ and anti-sense primer 5′ […]3′ . The corresponding primer sequences are described in Mantzoros, C. S., et.al., Diabetes, 1996, 45, 909-914. The four fragments are ligated into a pUC 18 plasmid (Gibco-BRL) and sequenced. Full-length β3-AR clones (402 amino acids) containing the last 6 amino acids of hβ3-AR are prepared with the β3-βARpcDNA3 from ATTC.\nBinding Procedure: Clones expressing receptor levels of 70 to 110 fmoles/mg protein were used in the test procedures. CHO cells were grown in 24-well tissue culture plates in Dulbecco's Modified Eagle Media with 10% fetal bovine serum, MEM non-essential amino acids, Penicillin—Streptomycin and Geneticin. On the day of test procedure, growth medium was replaced with preincubation media (Dulbecco's Modified Eagle Media) and incubated for 30 minutes at 37° C. Pre-incubation medium was replaced with 0.2 ml treatment medium containing DMEM media containing 250 μM IBMX (isobutyl-1-methylxantine) plus 1 mM ascorbic acid with test compound dissolved in DMSO. Test compounds were assayed over a concentration range of 10^−9 M to 10^−5 M for β3-AR transfected cells and 10^−8 to 10^−4 M for β1-AR and β2-AR transfected cells. Isoproterenol (10^−5 M) was used as an internal standard for comparison of activity. Cells were incubated at 37° C. on a rocker for 30 min with the β3-AR transfected cells and 15 min with β1-AR and β2-AR transfected cells. Incubation was stopped by the addition of 0.2N HCl and the acid was neutralized with 2.5N NaOH. The plates, containing the cells and neutralized media, were stored at −20° C. until ready to test for cAMP using the SPA test kit (Amersham).\nData Analysis and Results: Data collected from the SPA test procedure were analyzed as percent of the maximal isoproterenol response at 10^−5 M. Activity curves were plotted using the SAS statistical and graphics software."}}, "note": "Counter-ions that a name gives are not always drawn."}
{"molecule": "CCCCCCCCNC1=NS(=O)(=O)N=C1Nc1ccc(CC(C)NC[C@H](O)c2ccc(OCc3ccccc3)c(NS(C)(=O)=O)c2)cc1", "note": "(stereo partly drawn) [6 (step B), N-[2-Benzyloxy-5-((1R)-1-hydroxy-2-{1-methyl-2-[4-(4-octylamino-1,1-dioxo-1H-1(lambda(6))-[1,2,5]thiadiazol-3-ylamino)-phenyl]-ethylamino}-ethyl)-phenyl]-methanesulfonamide]", "values": [{"measurement": "IA(β3)", "setting": "[1]", "result": 0.32}]}
{"molecule": "CCCCCCCCNc1c(Nc2ccc(CC(C)NC[C@H](O)COc3ccc(O)cc3)cc2)c(=O)c1=O", "note": "(stereo partly drawn) [Compound 14, 3-(4-{2-[(2S)-2-Hydroxy-3-(4-hydroxy-phenoxy)-propylamino]-propyl}-phenylamino)-4-octylamino-cyclobut-3-ene-1,2-dione]", "values": [{"measurement": "EC50", "setting": "[1]", "result": 21, "unit": "nM"}, {"measurement": "IA(β3)", "setting": "[1]", "result": 0.81}]}
{"molecule": "CCCCCCCCNC1=NS(=O)(=O)N=C1Nc1ccc(CC(C)(C)NC[C@H](O)COc2ccc(OCc3ccccc3)cc2)cc1", "note": "[4 (step F)]", "values": [{"measurement": "EC50", "setting": "[1]", "result": 1060, "unit": "nM"}, {"measurement": "IA(β3)", "setting": "[1]", "result": 0.37}]}
{"molecule": "CCCCCCCCNC1=NS(=O)(=O)N=C1Nc1ccc(CCNC[C@H](O)COc2ccc(OCc3ccccc3)cc2)cc1", "note": "[5 (step E), (2S)-1-(4-Benzyloxy-phenoxy)-3-{2-[4-(4-octylamino-1,1-dioxo-1H-1.lambda(6).-[1,2,5]thiadiazol-3-ylamino)-phenyl]ethylamino}-propan-2-ol]", "values": [{"measurement": "EC50", "setting": "[1]", "result": 1390, "unit": "nM"}, {"measurement": "IA(β3)", "setting": "[1]", "result": 0.15}]}
{"molecule": "CC(Cc1ccc(NC2=NS(=O)(=O)N=C2NCC2(c3ccccc3)CCCC2)cc1)NC[C@H](O)COc1ccc(O)cc1", "note": "(stereo partly drawn) (as salt: HCl) [Compound 31, 4-{(2S)-3-[2-(4-{1,1-Dioxo-4-[(1-phenyl-cyclopentylmethyl)-amino]-1H-1(lambda(6))-[1,2,5]thiadiazol-3-ylamino}-phenyl)-1-methyl-ethylamino]-2-hydroxy-propoxy}-phenol]", "values": [{"measurement": "melting point", "result": "162 to 165", "unit": "°C"}]}
{"molecule": "CCCCCCCCNC1=NS(=O)(=O)N=C1Nc1ccc(CC(C)(C)NC[C@H](O)COc2ccc(O)cc2)cc1", "note": "(as salt: HCl) [Compound 4]", "values": [{"measurement": "melting point", "result": "229.5 to 231.3", "unit": "°C"}]}
{"molecule": "CN(C)c1ccc(C2(CNC3=NS(=O)(=O)N=C3Nc3ccc(CC(C)(C)NCC(O)c4ccc(O)c(NS(C)(=O)=O)c4)cc3)CCCC2)cc1", "note": "(centres unmarked) [Compound 34, N-[5-(2-{2-[4-(4-{[1-(4-dimethylamino-phenyl)-cyclopentylmethyl]-amino}-1,1-dioxo-1H-1.lambda(6).-[1,2,5]thiadiazol-3-ylamino)-phenyl]-1,1-dimethyl-ethylamino}-1-hydroxy-ethyl)-2-hydroxy-phenyl]-methanesulfonamide]", "values": [{"measurement": "EC50", "setting": "[1]", "result": 0.8, "unit": "nM"}, {"measurement": "IA(β3)", "setting": "[1]", "result": 1.0}]}
{"molecule": "CCCCCCCCNC1=NS(=O)(=O)N=C1Nc1ccc(CC(C)(C)NC[C@H](O)COc2ccc(O)cc2)cc1", "note": "[Compound 4]", "values": [{"measurement": "EC50", "setting": "[1]", "result": 68, "unit": "nM"}, {"measurement": "IA(β3)", "setting": "[1]", "result": 1.10}]}
{"molecule": "CN(C)c1ccc(C2(CNC3=NS(=O)(=O)N=C3Nc3ccc(CC(C)(C)NC[C@H](O)COc4ccc(O)cc4)cc3)CCCC2)cc1", "note": "[Compound 7, 4-{[(2S)-3-({2-[4-({4-[({1-[4-(dimethylamino)phenyl]cyclopentyl}methyl)amino]1,1-dioxido-1,25-thiadiazol-3-yl}amino)phenyl]-1 1-dimethylethyl}amino)-2-hydroxypropyl]oxy}phenol]", "values": [{"measurement": "EC50", "setting": "[1]", "result": 55, "unit": "nM"}, {"measurement": "IA(β3)", "setting": "[1]", "result": 0.74}]}
{"molecule": "(2S)-1-(4-Benzyloxy-phenoxy)-3-{2-[4-(4-decylamino-1,1-dioxo-1H-1-. lambda(6).-[1,2,5]thiadiazol-3-ylamino)-phenyl]-1-methyl-ethylamino}-propan-2-ol [Compound 18]", "values": [{"measurement": "IA(β3)", "setting": "[1]", "result": 0.46}]}
{"molecule": "CCCCCCCCCCNC1=NS(=O)(=O)N=C1Nc1ccc(CC(C)NC[C@H](O)COc2ccccc2)cc1", "note": "(stereo partly drawn) [Compound 20, (2S)-1-{2-[4-(4-Decylamino-1,1-dioxo-1H-1(lambda(6))-[1,2,5]thiadiazol-3-ylamino)-phenyl]-1-methyl-ethylamino}-3-phenoxy-propan-2-ol]", "values": [{"measurement": "IA(β3)", "setting": "[1]", "result": 0.39}]}
{"molecule": "CCOC(=O)CCCNC1=NS(=O)(=O)N=C1Nc1ccc(CC(C)NC[C@H](O)COc2ccc(OCc3ccccc3)cc2)cc1", "note": "(stereo partly drawn) [Compound 32, 4-[4-(4-{2-[(2S)-3-(4-benzyloxy-phenoxy)-2-hydroxy-propylamino]-propyl}-phenylamino)-1,1-Dioxo-1H-1(lambda(6))-[1,2,5]thiadiazol-3-ylamino]-butyric acid ethyl ester]", "values": [{"measurement": "EC50", "setting": "[1]", "result": 90, "unit": "nM"}, {"measurement": "IA(β3)", "setting": "[1]", "result": 0.62}]}
{"molecule": "CC(C)(Cc1ccc(NC2=NS(=O)(=O)N=C2NCC(c2ccccc2)c2ccccc2)cc1)NC[C@H](O)COc1ccc(O)cc1", "note": "[Compound 29, 4-[(2S)-3-(2-{4-[4-(2,2-Diphenyl-ethylamino)-1,1-dioxo-1H-1(lambda(6))-[1,2,5]thiadiazol-3-ylamino]-phenyl}-1,1-dimethyl-ethylamino)-2-hydroxy-propoxy]l-phenol]", "values": [{"measurement": "EC50", "setting": "[1]", "result": 14, "unit": "nM"}, {"measurement": "IA(β3)", "setting": "[1]", "result": 0.89}]}
{"molecule": "CCCCCCCCCCNC1=NS(=O)(=O)N=C1Nc1ccc(CC(C)NC[C@H](O)COc2ccc(O)cc2)cc1", "note": "(stereo partly drawn) [Compound 25, 4-((2S)-3-{2-[4-(4-Decylamino-1,1-dioxo-1H-1(lambda(6))-[1,2,5]thiadiazol-3-ylamino)-phenyl]-1-methyl-ethylamino}-2-hydroxy-propoxy)-phenol]", "values": [{"measurement": "EC50", "setting": "[1]", "result": 88, "unit": "nM"}, {"measurement": "IA(β3)", "setting": "[1]", "result": 0.85}]}
{"molecule": "CN(C)c1ccc(C2(CNC3=NS(=O)(=O)N=C3Nc3ccc(CC(C)(C)NC[C@H](O)COc4ccc(OCc5ccccc5)cc4)cc3)CCCC2)cc1", "note": "[7 (step E), (2S)-1-(4-Benzyloxy-phenoxy)-3-{2-{4-(4-{[1-(4-dimethylamino-phenyl)-cyclopentylmethyl]-amino}-1,1-dioxo-1H-1(lambda(6))-[1,2,5]thiadiazol-3-ylamino)-phenyl]-1,1-dimethyl-ethylamino}-propan-2-ol]", "values": [{"measurement": "EC50", "setting": "[1]", "result": 682, "unit": "nM"}, {"measurement": "IA(β3)", "setting": "[1]", "result": 0.56}]}
{"molecule": "CCOC(=O)CCCNC1=NS(=O)(=O)N=C1Nc1ccc(CC(C)NC[C@H](O)COc2ccc(O)cc2)cc1", "note": "(stereo partly drawn) [Compound 33, 4-{4-(4-{2-[(2S)-2-Hydroxy-3-(4-hydroxy-phenoxy)-propylamino]-propyl}-phenylamino)-1,1-dioxo-1H-1.lambda(6).-[1,2,5]thiadiazol-3-ylamino]-butyric acid ethyl ester]", "values": [{"measurement": "EC50", "setting": "[1]", "result": 37, "unit": "nM"}, {"measurement": "IA(β3)", "setting": "[1]", "result": 1.17}]}
{"molecule": "CCCCCCCCCCNC1=NS(=O)(=O)N=C1Nc1ccc(CC(C)NC[C@H](O)COc2cccc3[nH]c4ccccc4c23)cc1", "note": "(stereo partly drawn) [Compound 19, (2S)-1-(9H-Carbozol-4-yloxy)-3-{2-[4-(4-decylamino-1,1-dioxo-1H-1-.lambda(6).-[1,2,5]thiadiazol-3-ylamino)-phenyl]-1-methyl-ethylamino}-propan-2-ol]", "values": [{"measurement": "IA(β3)", "setting": "[1]", "result": 0.36}]}
{"molecule": "CCCCCCCCNC1=NS(=O)(=O)N=C1Nc1ccc(CC(C)NCC(O)c2cccc(Cl)c2)cc1", "note": "[Compound 3, (1R)-1-(3-Chloro-phenyl)-2-{1-methyl-2-[4-(octylamino-1,1-dioxo-1H-1-.lambda(6).-1,2,5]thiadiazol-3-ylamino)-phenyl]-ethylamino}-ethanol]", "values": [{"measurement": "EC50", "setting": "[1]", "result": 38, "unit": "nM"}, {"measurement": "IA(β3)", "setting": "[1]", "result": 0.86}]}
{"molecule": "CCCCCCNC(=O)Nc1ccc(C2(CNC3=NS(=O)(=O)N=C3Nc3ccc(CC(C)(C)NC[C@@H](O)COc4ccc(OCc5ccccc5)cc4)cc3)CCCC2)cc1", "note": "[8 (step H), 1-[4-(1-{[4-(4-{2-[(2R)-3-(4-Benzyloxy-phenoxy)-2-hydroxy-propylamino]-2-methyl-propyl}-phenylamino)-1 1-dioxo-1H-1.lambda(6).-[1,2,5]thiadiazol-3-ylamino]-methyl}-cyclopentyl)-phenyl]-3-hexyl-urea]", "values": [{"measurement": "EC50", "setting": "[1]", "result": 60, "unit": "nM"}, {"measurement": "IA(β3)", "setting": "[1]", "result": 0.40}]}
{"molecule": "CCCCCCCCNC1=NS(=O)(=O)N=C1Nc1ccc(CC(C)NC[C@H](O)COc2ccc(OCc3ccccc3)cc2)cc1", "note": "(stereo partly drawn) [Compound 11, (2S)-1-(4-Benzyloxy-phenoxy)-3-{1-methyl-2-[4-(4-octylamino-1,1-dioxo-1H-1.lambda(6).-[1,2,5]thiadiazol-3-ylamino)-phenyl]-ethylamino}-propan-2-ol]", "values": [{"measurement": "IA(β3)", "setting": "[1]", "result": 0.29}]}
{"molecule": "CC(Cc1ccc(NC2=NS(=O)(=O)N=C2NCC2(c3ccccc3)CCCC2)cc1)NC[C@H](O)COc1ccc(O)cc1", "note": "(stereo partly drawn) [Compound 31, 4-{(2S)-3-[2-(4-{1,1-Dioxo-4-[(1-phenyl-cyclopentylmethyl)-amino]-1H-1(lambda(6))-[1,2,5]thiadiazol-3-ylamino}-phenyl)-1-methyl-ethylamino]-2-hydroxy-propoxy}-phenol]", "values": [{"measurement": "EC50", "setting": "[1]", "result": 5, "unit": "nM"}, {"measurement": "IA(β3)", "setting": "[1]", "result": 1.0}]}
